Starred links: 1 amine or outer side, 2 acyl side, 3 side chain; linkers in the order of their positions; H or OH if unused. Positions of bridges follow the written chain, without caps; N, C: chain ends. Non-standard residues stand in square brackets, D forms with d. Residues, ends and D or L forms follow the SMILES beside them. *: point of attachment. X1 = CCOCc1nc2c(NC(=O)OCCSSC(C)CCC(=O)*)nc3ccccc3c2n1CC(C)(C)O; 1Nal = N[C@@H](Cc1cccc2ccccc12)C(=O)O; TBMB = c1c(C[*:1])cc(C[*:3])cc1C[*:2]; Tle = CC(C)(C)[C@H](N)C(=O)O; βAla = NCCC(=O)O; Sar = CNCC(=O)O

For one series, the system named is B16F10 xenograft. As to the kind of experiment: In vivo efficacy of I-8 alone or with antiPD-1 mAb in B16F10 xenograft. Also on record: species or system C57BL/6J mice. The protocol:
B16F10 tumor cells were maintained in vitro as a monolayer culture in EMEM medium supplemented with 10% heat inactivated fetal bovine serum at 37° C. in an atmosphere of 5% CO2 in air. The tumor cells were routinely subcultured twice weekly by trypsin-EDTA treatment. The cells growing in an exponential growth phase were harvested and counted for tumor inoculation.
6-8 week old female C57BL/6J mice were inoculated subcutaneously at the right flank with B16F10 tumor cells (5×10^5) in 0.1 ml of PBS for tumor development. Animals were randomized when the average tumor volume reached 65 mm^3.
Conjugates were formulated in 25 mM Histidine, 10% sucrose pH=7 buffer (vehicle) and administered intravenously. Anti-PD1 antibody (Wuxi AppTech, Shanghai, China) was formulated in aqueous buffer and administered intraperitoneally.
Tumor volume was measured three times weekly in two dimensions using a caliper, and the volume was expressed in mm^3 using the formula: V=0.5 a×b^2 where a and b are the long and short diameters of the tumor, respectively. The tumor size was then used for calculations of T/C value. The T/C value (in percent) is an indication of antitumor effectiveness; T and C are the mean volumes of the treated and control groups, respectively, on a given day.
TGI was calculated for each group using the formula: TGI (%)=[1−(Ti−T0)/(Vi−V0)]×100; Ti is the average tumor volume of a treatment group on a given day, T0 is the average tumor volume of the treatment group on the day of treatment start, Vi is the average tumor volume of the vehicle control group on the same day with Ti, and V0 is the average tumor volume of the vehicle group on the day of treatment start.
Summary statistics, including mean and the standard error of the mean (SEM), are provided for the tumor volume of each group at each time point.
Statistical analysis of difference in tumor volume among the groups was conducted on the data obtained at the best therapeutic time point after the final dose.
A one-way ANOVA was performed to compare tumor volume among groups, and when a significant F-statistics (a ratio of treatment variance to the error variance) was obtained, comparisons between groups were carried out with Games-Howell test. All data were analyzed using Prism. P<0.05 was considered to be statistically significant.

Series [1] in a line: Plasma pharmacokinetics of Bicycle conjugates in CD-1 mice. The class given is in vivo. The settings on record: 3 mg/kg IV, male CD-1 mice. Here is the method: Male CD-1 mice were dosed with 3 mg/kg of Bicycle Conjugate formulated in 25 mM Histidine HCl, 10% sucrose pH 7 via tail vein injection. Serial bleeding (about 80 μL blood/time point) was performed via submadibular or saphenous vein at each time point. All blood samples were immediately transferred into prechilled microcentrifuge tubes containing 2 μL K2-EDTA (0.5M) as anti-coagulant and placed on wet ice.

Setting [2] is: Study 2, day 9, I-8 20 mpk iv tiw, aPD1 10 mpk ip qw.

For `CCOCc1nc2c(NC(=O)OCCSSC(C)CCC(=O)NCCC(=O)N(C)CC(=O)N(C)CC(=O)N(C)CC(=O)N(C)CC(=O)N(C)CC(=O)N(C)CC(=O)N(C)CC(=O)N(C)CC(=O)N(C)CC(=O)N(C)CC(=O)N[C@@H](C)C(=O)N[C@H]3CSCc4cc5cc(c4)CSC[C@H](NC(=O)[C@@H](C)NC(=O)[C@H](Cc4cccc6ccccc46)NC(=O)[C@H](CCC(=O)O)NC(=O)[C@H](CC(N)=O)NC(=O)[C@@H](C)NC3=O)C(=O)N[C@@H](CCC(=O)O)C(=O)N[C@@H](CC(=O)O)C(=O)N[C@@H](Cc3ccccc3)C(=O)N[C@@H](Cc3ccc(O)cc3)C(=O)N[C@@H](CC(=O)O)C(=O)N[C@@H](C(C)(C)C)C(=O)N[C@H](C(N)=O)CSC5)nc3ccccc3c2n1CC(C)(C)O` (stereo partly shown) [I-8] ({X1-βAla}-[Sar][Sar][Sar][Sar][Sar][Sar][Sar][Sar][Sar][Sar]AC[dA]NE[1Nal][dA]CEDFYD[Tle]C-NH2; linker 12-18-25 via TBMB), in the series with B16F10 xenograft (Study 1, 20 mpk iv tiw, day 9), the T/C – broadly, the result in the treated group divided by that in the control group, in per cent – was 54.9%; the tumour growth inhibition (TGI) (usually how far tumour growth fell short of that in controls) is reported as 50.0%; the “Tumor Volume (Mean ± SEM)” value worked out at 356 ± 60 mm^3. Also, in the series on B16F10 xenograft (Study 1, 60 mpk iv tiw, day 9), the T/C came out at 25.6%, the tumour growth inhibition (TGI) was 82.9% and the “Tumor Volume (Mean ± SEM)” value is given as 166 ± 26 mm^3. Besides, in the series on B16F10 xenograft (setting [2]), the T/C was determined as 86.8%, the tumour growth inhibition (TGI) amounted to 13.7% and the “Tumor Volume (Mean ± SEM)” value was 1678 ± 1129 mm^3. Moreover, the systemic elimination entry in series [1] is listed as “rapid systemic elimination”.
